ChEMBL document CHEMBL3991601, “The target landscape of clinical kinase drugs” (Science, 2017)
The source made the active and inactive calls. For most assays here, no stated cut-off is given here; in the data, actives have a measured Kd and inactives only a lower limit.

Experiments:
[1] = molecular target: Serine/threonine-protein kinase 26 (Homo sapiens, UniProt Q9P289)
[2] = molecular target: Guanine nucleotide-binding protein G(i) subunit alpha-2 (Homo sapiens, UniProt P04899)
[3] = molecular target: T1, Non-receptor tyrosine-protein kinase TNK1 (Homo sapiens, UniProt Q13470)
T1 sequence (Q13470 whole entry): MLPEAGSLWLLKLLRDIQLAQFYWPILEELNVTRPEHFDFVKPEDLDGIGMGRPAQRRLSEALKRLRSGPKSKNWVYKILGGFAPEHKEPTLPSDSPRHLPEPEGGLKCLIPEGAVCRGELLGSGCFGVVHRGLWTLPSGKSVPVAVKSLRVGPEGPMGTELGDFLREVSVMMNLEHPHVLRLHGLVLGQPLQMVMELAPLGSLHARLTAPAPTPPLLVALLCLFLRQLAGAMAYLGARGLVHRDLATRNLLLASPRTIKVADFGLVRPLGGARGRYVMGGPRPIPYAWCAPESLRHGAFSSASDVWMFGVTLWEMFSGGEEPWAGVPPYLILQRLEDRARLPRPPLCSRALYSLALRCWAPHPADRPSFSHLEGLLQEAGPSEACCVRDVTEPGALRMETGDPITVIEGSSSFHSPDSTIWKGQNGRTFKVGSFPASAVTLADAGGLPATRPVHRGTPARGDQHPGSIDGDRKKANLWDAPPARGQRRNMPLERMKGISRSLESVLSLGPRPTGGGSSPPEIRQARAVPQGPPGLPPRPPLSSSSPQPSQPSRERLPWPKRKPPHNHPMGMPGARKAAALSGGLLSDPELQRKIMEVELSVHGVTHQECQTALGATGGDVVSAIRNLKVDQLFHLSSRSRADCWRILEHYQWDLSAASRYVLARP

[4] = molecular target: T2, Phosphatidylinositol 5-phosphate 4-kinase type-2 gamma (Homo sapiens, UniProt Q8TBX8)
T2 sequence (Q8TBX8 whole entry): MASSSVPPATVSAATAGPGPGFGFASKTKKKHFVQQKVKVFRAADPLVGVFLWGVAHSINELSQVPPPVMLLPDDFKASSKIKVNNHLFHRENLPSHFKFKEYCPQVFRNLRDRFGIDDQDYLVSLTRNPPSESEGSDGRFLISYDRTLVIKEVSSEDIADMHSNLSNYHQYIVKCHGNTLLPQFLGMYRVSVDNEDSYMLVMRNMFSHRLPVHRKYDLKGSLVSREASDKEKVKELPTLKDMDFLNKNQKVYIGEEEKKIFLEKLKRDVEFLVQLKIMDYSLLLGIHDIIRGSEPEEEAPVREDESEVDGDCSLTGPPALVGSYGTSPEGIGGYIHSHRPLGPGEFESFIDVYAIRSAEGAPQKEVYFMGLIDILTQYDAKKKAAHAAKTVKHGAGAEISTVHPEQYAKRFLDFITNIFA

[5] = molecular target: T3, Tyrosine-protein kinase Tec (Homo sapiens, UniProt P42680)
T3 sequence (P42680 whole entry): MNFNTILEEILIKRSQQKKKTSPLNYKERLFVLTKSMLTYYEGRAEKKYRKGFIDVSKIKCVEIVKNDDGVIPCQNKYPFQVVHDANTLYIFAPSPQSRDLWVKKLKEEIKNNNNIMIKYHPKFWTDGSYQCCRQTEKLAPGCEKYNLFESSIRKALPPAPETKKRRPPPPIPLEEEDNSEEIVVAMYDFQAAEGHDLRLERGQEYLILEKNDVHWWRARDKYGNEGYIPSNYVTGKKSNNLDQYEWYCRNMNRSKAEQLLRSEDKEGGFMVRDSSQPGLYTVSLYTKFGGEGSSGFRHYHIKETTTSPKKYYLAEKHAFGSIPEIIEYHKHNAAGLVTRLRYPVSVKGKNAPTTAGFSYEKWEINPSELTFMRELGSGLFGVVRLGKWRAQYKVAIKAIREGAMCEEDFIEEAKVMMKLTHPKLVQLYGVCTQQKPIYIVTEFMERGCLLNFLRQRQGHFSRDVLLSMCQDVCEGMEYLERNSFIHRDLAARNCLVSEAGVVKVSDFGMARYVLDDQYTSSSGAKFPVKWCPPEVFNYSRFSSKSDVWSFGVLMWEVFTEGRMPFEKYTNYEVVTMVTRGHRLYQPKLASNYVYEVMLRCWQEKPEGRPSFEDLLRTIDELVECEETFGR

[6] = molecular target: T4, ATP-dependent RNA helicase DDX1 (Homo sapiens, UniProt Q92499)
T4 sequence (Q92499 whole entry): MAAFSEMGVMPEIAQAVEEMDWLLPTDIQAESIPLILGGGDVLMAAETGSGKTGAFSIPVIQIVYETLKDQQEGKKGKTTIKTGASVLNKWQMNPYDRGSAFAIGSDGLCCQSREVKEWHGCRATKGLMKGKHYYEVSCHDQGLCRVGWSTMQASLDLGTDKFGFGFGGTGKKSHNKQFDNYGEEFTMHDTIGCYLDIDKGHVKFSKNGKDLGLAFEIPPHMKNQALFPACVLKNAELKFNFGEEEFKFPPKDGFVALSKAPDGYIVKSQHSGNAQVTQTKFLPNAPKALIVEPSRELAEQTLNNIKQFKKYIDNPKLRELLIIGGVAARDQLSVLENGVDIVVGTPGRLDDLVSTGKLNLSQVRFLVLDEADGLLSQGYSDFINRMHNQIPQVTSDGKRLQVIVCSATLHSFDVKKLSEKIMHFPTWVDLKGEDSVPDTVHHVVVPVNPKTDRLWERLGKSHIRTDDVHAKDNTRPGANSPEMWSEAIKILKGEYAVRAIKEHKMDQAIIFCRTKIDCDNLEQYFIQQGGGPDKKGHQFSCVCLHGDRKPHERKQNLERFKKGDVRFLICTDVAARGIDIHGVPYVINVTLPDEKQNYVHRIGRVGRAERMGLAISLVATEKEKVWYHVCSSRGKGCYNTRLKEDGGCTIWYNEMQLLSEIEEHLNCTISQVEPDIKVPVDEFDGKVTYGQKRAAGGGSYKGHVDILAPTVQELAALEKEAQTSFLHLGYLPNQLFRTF

[7] = molecular target: Atypical kinase COQ8A, mitochondrial (Homo sapiens, UniProt Q8NI60)
Atypical kinase COQ8A, mitochondrial, sequence (Q8NI60 whole entry): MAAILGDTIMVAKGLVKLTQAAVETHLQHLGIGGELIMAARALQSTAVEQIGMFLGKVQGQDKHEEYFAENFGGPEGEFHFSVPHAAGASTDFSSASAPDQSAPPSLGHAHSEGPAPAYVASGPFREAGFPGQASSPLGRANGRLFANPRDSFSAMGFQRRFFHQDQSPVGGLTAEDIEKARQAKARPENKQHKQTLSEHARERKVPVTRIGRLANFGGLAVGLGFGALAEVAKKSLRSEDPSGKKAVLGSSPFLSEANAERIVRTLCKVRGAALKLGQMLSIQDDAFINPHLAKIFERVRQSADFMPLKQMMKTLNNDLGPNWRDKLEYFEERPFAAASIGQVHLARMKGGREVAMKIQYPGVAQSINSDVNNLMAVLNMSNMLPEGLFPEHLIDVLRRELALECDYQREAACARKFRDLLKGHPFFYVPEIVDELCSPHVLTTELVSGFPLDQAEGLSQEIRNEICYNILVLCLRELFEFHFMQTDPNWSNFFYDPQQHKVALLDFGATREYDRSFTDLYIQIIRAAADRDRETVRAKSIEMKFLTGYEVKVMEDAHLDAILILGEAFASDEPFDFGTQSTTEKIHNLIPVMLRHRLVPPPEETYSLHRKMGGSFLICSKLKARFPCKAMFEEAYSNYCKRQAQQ

[8] = molecular target: MAP/microtubule affinity-regulating kinase 3 (Homo sapiens, UniProt P27448)
MAP/microtubule affinity-regulating kinase 3, sequence (P27448 whole entry): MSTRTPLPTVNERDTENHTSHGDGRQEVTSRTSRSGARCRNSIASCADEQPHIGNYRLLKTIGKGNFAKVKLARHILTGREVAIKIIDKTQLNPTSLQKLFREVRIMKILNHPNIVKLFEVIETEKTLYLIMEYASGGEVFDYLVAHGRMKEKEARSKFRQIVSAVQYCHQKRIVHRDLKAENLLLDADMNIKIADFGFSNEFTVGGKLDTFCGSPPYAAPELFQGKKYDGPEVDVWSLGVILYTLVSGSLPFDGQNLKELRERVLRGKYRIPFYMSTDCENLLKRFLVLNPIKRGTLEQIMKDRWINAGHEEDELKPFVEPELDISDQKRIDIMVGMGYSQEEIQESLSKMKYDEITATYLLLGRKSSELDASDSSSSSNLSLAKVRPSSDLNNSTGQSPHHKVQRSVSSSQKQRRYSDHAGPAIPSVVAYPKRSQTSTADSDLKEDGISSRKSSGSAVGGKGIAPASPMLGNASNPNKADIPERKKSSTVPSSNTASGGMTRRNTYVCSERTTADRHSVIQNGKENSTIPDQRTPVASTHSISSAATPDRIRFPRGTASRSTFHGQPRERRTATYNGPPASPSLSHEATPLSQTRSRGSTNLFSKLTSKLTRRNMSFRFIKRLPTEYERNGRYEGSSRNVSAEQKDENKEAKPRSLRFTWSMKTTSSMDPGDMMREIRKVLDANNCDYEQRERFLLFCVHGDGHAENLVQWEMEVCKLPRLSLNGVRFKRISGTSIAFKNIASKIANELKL

Serine/threonine-protein kinase 26, sequence (Q9P289 whole entry): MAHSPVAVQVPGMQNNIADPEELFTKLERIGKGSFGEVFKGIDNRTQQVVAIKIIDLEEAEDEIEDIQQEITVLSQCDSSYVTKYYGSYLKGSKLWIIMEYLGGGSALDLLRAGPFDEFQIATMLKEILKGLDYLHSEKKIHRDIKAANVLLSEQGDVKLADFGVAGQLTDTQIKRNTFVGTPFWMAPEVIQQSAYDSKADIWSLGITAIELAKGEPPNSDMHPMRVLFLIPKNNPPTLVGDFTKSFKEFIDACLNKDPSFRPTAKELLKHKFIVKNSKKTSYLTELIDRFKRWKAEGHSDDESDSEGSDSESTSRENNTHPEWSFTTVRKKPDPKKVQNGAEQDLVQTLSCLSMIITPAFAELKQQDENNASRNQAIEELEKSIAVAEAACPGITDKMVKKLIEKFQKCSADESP
Guanine nucleotide-binding protein G(i) subunit alpha-2, sequence (P04899 whole entry): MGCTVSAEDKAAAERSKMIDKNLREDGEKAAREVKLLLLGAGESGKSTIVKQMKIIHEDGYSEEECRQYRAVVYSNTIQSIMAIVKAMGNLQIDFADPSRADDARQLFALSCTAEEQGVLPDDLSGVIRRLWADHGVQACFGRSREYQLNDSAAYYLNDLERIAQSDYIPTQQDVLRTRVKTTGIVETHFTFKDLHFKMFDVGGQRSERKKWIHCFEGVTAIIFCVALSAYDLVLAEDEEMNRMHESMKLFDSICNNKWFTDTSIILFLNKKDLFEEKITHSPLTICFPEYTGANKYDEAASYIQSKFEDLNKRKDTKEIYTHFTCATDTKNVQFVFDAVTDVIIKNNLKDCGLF

Row | Structure (SMILES) | Kd [1] | Kd [2] | Kd [3] | Kd [4] | Kd [5] | Kd [6] | Kd [7] | Kd [8]
1 | COc1cc2ncnc(Nc3ccc(F)c(Cl)c3)c2cc1NC(=O)/C=C/CN1CCCCC1 [DACOMITINIB ANHYDROUS] | > 30 µM (inactive) | > 30 µM (inactive) | > 30 µM (inactive) | > 30 µM (inactive) | > 30 µM (inactive) | > 30 µM (inactive) | > 30 µM (inactive) | > 30 µM (inactive)
2 | C#Cc1cccc(Nc2ncnc3cc4c(cc23)OCCOCCOCCO4)c1 [ICOTINIB] | > 30 µM (inactive) | > 30 µM (inactive) | > 30 µM (inactive) | 4.66 µM (active) | > 30 µM (inactive) | > 30 µM (inactive) | > 30 µM (inactive) | > 30 µM (inactive)
3 | O[C@H]1CC[C@H](Nc2ncc3nc(Nc4c(F)cc(F)cc4F)n([C@H]4CCOC4)c3n2)CC1 [TANZISERTIB] | > 30 µM (inactive) | > 30 µM (inactive) | > 30 µM (inactive) | > 30 µM (inactive) | > 30 µM (inactive) | > 30 µM (inactive) | > 30 µM (inactive) | > 30 µM (inactive)
4 | S=C(NCc1ccc2c(c1)OCO2)N1CCN(c2ncnc3c2oc2ccccc23)CC1 [AMUVATINIB] | > 30 µM (inactive) | > 30 µM (inactive) | > 30 µM (inactive) | > 30 µM (inactive) | > 30 µM (inactive) | > 30 µM (inactive) | > 30 µM (inactive) | > 30 µM (inactive)
5 | CN1CCN(c2nc(C3=C(c4c[nH]c5ccccc45)C(=O)NC3=O)c3ccccc3n2)CC1 [SOTRASTAURIN] | > 30 µM (inactive) | > 30 µM (inactive) | > 30 µM (inactive) | > 30 µM (inactive) | > 30 µM (inactive) | > 30 µM (inactive) | > 30 µM (inactive) | > 30 µM (inactive)
6 | COc1cc(Nc2ncc(F)c(Nc3ccc4c(n3)N(COP(=O)(O)O)C(=O)C(C)(C)O4)n2)cc(OC)c1OC [FOSTAMATINIB] | > 30 µM (inactive) | > 30 µM (inactive) | 0.16 µM (active) | – | > 30 µM (inactive) | > 30 µM (inactive) | > 30 µM (inactive) | > 30 µM (inactive)
7 | O=c1[nH]c([C@@H]2CCCN2)nc2c1oc1ccc(Cl)cc12 | > 30 µM (inactive) | > 30 µM (inactive) | > 30 µM (inactive) | > 30 µM (inactive) | > 30 µM (inactive) | – | > 30 µM (inactive) | > 30 µM (inactive)
8 | CCc1nc(C(N)=O)c(Nc2ccc(N3CCC(N4CCN(C)CC4)CC3)c(OC)c2)nc1NC1CCOCC1 [GILTERITINIB] | 1.14 µM (active) | > 30 µM (inactive) | 0.039 µM (active) | > 30 µM (inactive) | > 30 µM (inactive) | – | > 30 µM (inactive) | > 30 µM (inactive)
9 | C=CCN(/C=C1/C(=O)O[C@H](COC)[C@@]2(C)C1=C(O)C(=O)C1=C2[C@H](OC(C)=O)C[C@]2(C)C(=O)CC[C@@H]12)CC=C [SONOLISIB] | > 30 µM (inactive) | > 30 µM (inactive) | > 30 µM (inactive) | > 30 µM (inactive) | > 30 µM (inactive) | – | > 30 µM (inactive) | > 30 µM (inactive)

Results, then the compound that gave them:

Row | Kd [1] | Kd [2] | Kd [3] | Kd [4] | Kd [5] | Kd [6] | Kd [7] | Kd [8] | Structure (SMILES)
10 | > 30 µM (inactive) | > 30 µM (inactive) | > 30 µM (inactive) | > 30 µM (inactive) | > 30 µM (inactive) | > 30 µM (inactive) | > 30 µM (inactive) | > 30 µM (inactive) | COc1cc2ncnc3c2cc1OCCCCCN(C)Cc1ccc(Br)cc1N3 [JNJ-26483327]
11 | > 30 µM (inactive) | > 30 µM (inactive) | > 30 µM (inactive) | > 30 µM (inactive) | > 30 µM (inactive) | > 30 µM (inactive) | > 30 µM (inactive) | > 30 µM (inactive) | Cc1cc(C(=O)Nc2cc(Oc3ccc4nc(NC(=O)C5CC5)cn4n3)ccc2C)n(C)n1 [TAK-593]
12 | > 30 µM (inactive) | > 30 µM (inactive) | > 30 µM (inactive) | > 30 µM (inactive) | > 30 µM (inactive) | > 30 µM (inactive) | > 30 µM (inactive) | > 30 µM (inactive) | CCOc1ccn(-c2ccc(F)cc2)c(=O)c1C(=O)Nc1ccc(Oc2ccnc(N)c2Cl)c(F)c1 [BMS-777607]
